We go through one compound from PMC5908784, “Extracellular loops 2 and 3 of the calcitonin receptor selectively modify agonist binding and efficacy” (Biochemical Pharmacology, 2018).

What is called Ki is a dissociation constant, usually derived from enzyme kinetics or from competition with a known ligand. Lower therefore signals tighter binding.

Structures are written as SMILES. Positions count from the first letter of the chain named. Where a SMILES comes first, the peptide text is derived from it. Bridges are numbered along the chain shown (N, C = ends).

Assay in all cases: Heterologous whole cell competition binding
Conditions in all cases: heterologous competition of 125I-sCT(8-32), whole cells, mean ± S.E.M., SEM

One assay addresses T1, hCTR D373A (Homo sapiens, UniProt P30988, D373A).
T1 construct: c-Myc (N); expressed in transfected cells
T1 sequence (P30988 25-474 D373A): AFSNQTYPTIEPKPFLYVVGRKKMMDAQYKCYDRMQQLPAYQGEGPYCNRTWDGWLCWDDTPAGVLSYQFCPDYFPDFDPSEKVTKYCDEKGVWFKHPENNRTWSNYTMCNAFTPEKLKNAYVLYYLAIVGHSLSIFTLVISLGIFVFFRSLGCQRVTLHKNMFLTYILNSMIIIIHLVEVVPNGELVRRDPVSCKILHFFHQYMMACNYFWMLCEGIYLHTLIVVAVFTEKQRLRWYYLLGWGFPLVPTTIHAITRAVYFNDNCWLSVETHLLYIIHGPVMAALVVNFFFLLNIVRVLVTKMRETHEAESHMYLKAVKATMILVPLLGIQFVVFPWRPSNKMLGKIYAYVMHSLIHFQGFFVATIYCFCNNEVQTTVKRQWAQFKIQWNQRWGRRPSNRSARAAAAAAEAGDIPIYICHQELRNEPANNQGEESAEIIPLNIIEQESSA
The method in brief: (§1)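 Intact cells carrying the mutant calcitonin receptor are co-incubated overnight with labelled tracer and unlabelled competitor. Non-bound ligand is then washed away and retained radioactivity measured by gamma counting; competition data are converted to pKi using Cheng-Prusoff.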

The target of another assay is T2, hCTR K366A (Homo sapiens, UniProt P30988, K366A).
T2 construct: c-Myc (N); expressed in transfected cells
T2 sequence (P30988 25-474 K366A): T1 sequence (P30988 25-474 D373A) with K342A, A349D
The method in brief: as §1

A further assay has as its target T3, hCTR T295A (Homo sapiens, UniProt P30988, T295A).
T3 construct: c-Myc (N); expressed in transfected cells
T3 sequence (P30988 25-474 T295A): T1 sequence (P30988 25-474 D373A) with T271A, A349D
Summed up:
as §1

The next assay has as its target T4, hCTR V283A (Homo sapiens, UniProt P30988, V283A).
T4 construct: expressed in transfected cells
T4 sequence (P30988 25-474 V283A): T1 sequence (P30988 25-474 D373A) with V259A, A349D
Summed up: as §1

Another assay has as its target T5, hCTR Y372A (Homo sapiens, UniProt P30988, Y372A).
T5 construct: c-Myc (N); expressed in transfected cells
T5 sequence (P30988 25-474 Y372A): T1 sequence (P30988 25-474 D373A) with Y348A, A349D
Summed up: as §1

`CSCC[C@H](NC(=O)CNC(=O)[C@H](CO)NC(=O)[C@H](Cc1ccccc1)NC(=O)[C@H](CCCNC(=N)N)NC(=O)[C@H](Cc1c[nH]cn1)NC(=O)[C@H](Cc1ccccc1)NC(=O)[C@H](CC(N)=O)NC(=O)[C@H](CC(N)=O)NC(=O)[C@H](CC(C)C)NC(=O)[C@H](CC(N)=O)NC(=O)[C@H](CCCNC(=N)N)NC(=O)[C@H](Cc1c[nH]c2ccccc12)NC(=O)[C@H](Cc1ccc(O)cc1)NC(=O)[C@H](C)NC(=O)[C@H](CO)NC(=O)[C@H](CC(C)C)NC(=O)[C@@H](NC(=O)[C@@H]1CSSC[C@H](N)C(=O)N[C@@H](CO)C(=O)N[C@@H](CC(N)=O)C(=O)N[C@@H](CC(C)C)C(=O)N[C@@H](CO)C(=O)N[C@@H]([C@@H](C)O)C(=O)N1)C(C)C)C(=O)NCC(=O)N[C@@H](Cc1ccccc1)C(=O)NCC(=O)N1CCC[C@H]1C(=O)N[C@@H](CCC(=O)O)C(=O)N[C@H](C(=O)N1CCC[C@H]1C(N)=O)[C@@H](C)O` [pCT] (H-CSNLSTCVLSAYWRNLNNFHRFSGMGFGPETP-NH2; disulfide 1-7): the Ki at hCTR D373A was 17.4 nM; at hCTR K366A, 11 nM; at hCTR T295A, 32.4 nM; on hCTR V283A, 15.1 nM; on hCTR Y372A, 28.2 nM.
